This note sets out measurements from patent US20220289753A1, “SHP2 INHIBITORS” (IRBM S.P.A., priority 2019, published 2022).

The target of assay [1] is T1, SHP-2 enzyme (Met1-Leu525) (Homo sapiens, UniProt Q06124).
T1 construct: synthetized by Origene, Met1-Leu525, cat #TP750155; purchased Origene TP750155
T1 sequence (Q06124 1-525): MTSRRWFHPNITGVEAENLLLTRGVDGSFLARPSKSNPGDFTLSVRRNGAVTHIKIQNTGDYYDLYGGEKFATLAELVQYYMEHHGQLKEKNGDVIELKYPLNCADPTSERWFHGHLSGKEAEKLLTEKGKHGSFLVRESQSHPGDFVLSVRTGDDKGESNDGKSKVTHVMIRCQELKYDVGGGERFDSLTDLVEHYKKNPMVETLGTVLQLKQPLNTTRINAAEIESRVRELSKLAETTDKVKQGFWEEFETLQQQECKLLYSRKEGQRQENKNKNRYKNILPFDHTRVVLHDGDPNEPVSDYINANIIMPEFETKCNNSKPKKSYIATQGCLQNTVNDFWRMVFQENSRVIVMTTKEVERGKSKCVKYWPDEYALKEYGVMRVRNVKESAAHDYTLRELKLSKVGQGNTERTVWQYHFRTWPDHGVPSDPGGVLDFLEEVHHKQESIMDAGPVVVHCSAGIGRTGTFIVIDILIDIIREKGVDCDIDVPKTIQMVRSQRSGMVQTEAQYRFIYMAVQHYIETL
Put plainly: SHP2 inhibition enzymatic assay (DiFMUP substrate, IRS1 peptide activation). Type of assay: biochemical. The note with it: SHP2 wt; activated by 500 nM IRS1 peptide; 75 μM DiFMUP substrate. Put shortly:
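SHP-2 (Met1-Leu525, 0.5 nM final) preincubated 30 min with compounds and IRS1 activating peptide in HEPES pH 7.2 buffer with NaCl, KCl, EDTA, tween-20, 5 mM DTT. DiFMUP then added for 30 min at room temperature and fluorescence read. IC50 from four-parameter logistic fit of % inhibition.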

Assay [2] has as its system ERK phosphorylation in KYSE-520 cells. In words: Phospho-ERK cellular assay (Advanced phospho-ERK1/2 (Thr202/Tyr204) TR-FRET kit). The assay is classed as cell-based. The note with it: Homo sapiens, KYSE-520, 2 h, read-out: pERK IC50. The procedure, abridged:
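IC50 values are inflection points of four-parameter logistic fits of percent activity against compound dilution. Compound exposure lasted 2 h at 37° C in KYSE-520 cells. Lysates were probed overnight with Eu-cryptate/d2 antibodies to ERK1/2 phosphorylated at Thr202/Tyr204, so reduced TR-FRET indicates SHP2 inhibition.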
Background: Time-resolved FRET reads energy transfer from a long-lived donor to a nearby acceptor.

The mark [3] stands for this setting: KYSE-520 cells, 2 h at 37° C., TR-FRET.

SMILES strings stand for the structures. Read-outs that look alike come from different tables or passages of the source.

In the case of `Cc1c(Sc2cnc3nc(N4CCC5(CC4)Cc4ccccc4[C@H]5N)[nH]c3n2)ccnc1N` [Example 204, (S)-1′-(6-((2-amino-3-methylpyridin-4-yl)thio)-1H-imidazo[4,5-b]pyrazin-2-yl)-1,3-dihydrospiro[indene-2,4′-piperidin]-1-amine], the half-maximal inhibitory concentration (IC50) is < 0.5 µM in assay [1] and < 1 µM in assay [2] (setting [3]).

For `N[C@@H]1c2cc(F)ccc2CC12CCN(c1nc3ncc(Sc4ccncc4Cl)nc3[nH]1)CC2` [Example 183, (S)-1′-(6-((3-chloropyridin-4-yl)thio)-1H-imidazo[4,5-b]pyrazin-2-yl)-6-fluoro-1,3-dihydrospiro[indene-2,4′-piperidin]-1-amine], the half-maximal inhibitory concentration (IC50) in assay [1] is < 0.5 µM; in assay [2] (setting [3]), < 1 µM.

For `CC1(N)CCN(c2nc3ncc(Sc4cccc(Cl)c4Cl)nc3[nH]2)CC1` [Example 22, 1-(5-((2,3-dichlorophenyl)thio)-1H-imidazo[4,5-b]pyrazin-2-yl)-4-methylpiperidin-4-amine], the results for the IC50 in assay [1] and in assay [2] (setting [3]) were < 0.5 µM and 1 to 5 µM, respectively.

With `CNc1nccc(Sc2cnc3[nH]c(N4CCC5(CC4)Cc4ncccc4[C@H]5N)nc3n2)c1C(F)(F)F` [Example 264, (5S)-1′-[5-[2-(methylamino)-3-(trifluoromethyl)pyridin-4-yl]sulfanyl-1H-imidazo[4,5-b]pyrazin-2-yl]spiro[5,7-dihydrocyclopenta[b]pyridine-6,4′-piperidine]-5-amine], the concentration for half-maximal inhibition (IC50) in assay [1] was < 0.5 µM; in assay [2] (setting [3]), < 1 µM.

On to `N[C@H]1c2ccccc2CC12CCN(c1nc3nc(Sc4cccnc4C(F)(F)F)cnc3[nH]1)CC2` [Example 149, (R)-1′-(5-((2-(trifluoromethyl)pyridin-3-yl)thio)-1H-imidazo[4,5-b]pyrazin-2-yl)-1,3-dihydrospiro[indene-2,4′-piperidin]-1-amine], for which the concentration for half-maximal inhibition (IC50) is < 0.5 µM in assay [1] and 1 to 5 µM in assay [2].

`N[C@@H]1c2cccnc2CC12CCN(c1nc3nc(Sc4cccnc4C(F)(F)F)cnc3[nH]1)CC2` [Example 139, (S)-1′-(5-((2-(trifluoromethyl)pyridin-3-yl)thio)-1H-imidazo[4,5-b]pyrazin-2-yl)-5,7-dihydrospiro[cyclopenta[b]pyridine-6,4′-piperidin]-5-amine]: the IC50 was < 0.5 µM in assay [1] and < 1 µM in assay [2] (setting [3]).

Turning to `N[C@@H]1c2ccccc2CC12CCN(c1nc3nc(N4CCCc5ncccc54)cnc3[nH]1)CC2` [Example 249, (S)-1′-(5-(3,4-dihydro-1,5-naphthyridin-1(2H)-yl)-1H-imidazo[4,5-b]pyrazin-2-yl)-1,3-dihydrospiro[indene-2,4′-piperidin]-1-amine], the IC50 in assay [1] is < 0.5 µM; in assay [2] (setting [3]), < 1 µM.

Take `N[C@@H]1c2ccccc2CC12CCN(c1nc3nc(Sc4ccncc4Cl)cnc3[nH]1)CC2` [Example 148, (S)-1′-(5-((3-chloropyridin-4-yl)thio)-1H-imidazo[4,5-b]pyrazin-2-yl)-1,3-dihydrospiro[indene-2,4′-piperidin]-1-amine]: the IC50 was < 0.5 µM in assay [1] and < 1 µM in assay [2].

With `COc1cnccc1Sc1cnc2nc(N3CCC4(CC3)Cc3ccccc3[C@H]4N)[nH]c2n1` [Example 177, (S)-1′-(6-((3-methoxypyridin-4-yl)thio)-1H-imidazo[4,5-b]pyrazin-2-yl)-1,3-dihydrospiro[indene-2,4′-piperidin]-1-amine], the half-inhibitory concentration (IC50) in assay [1] is < 0.5 µM; in assay [2] (setting [3]), < 1 µM.

In the case of `CN1C(=O)C(F)(F)c2c(Sc3cnc4[nH]c(N5CCC6(CC5)Cc5ccccc5[C@H]6N)nc4n3)cccc21` [Example 134, (S)-4-((2-(1-amino-1,3-dihydrospiro[indene-2,4′-piperidin]-1′-yl)-1H-imidazo[4,5-b]pyrazin-5-yl)thio)-3,3-difluoro-1-methylindolin-2-one], the IC50 in assay [1] is < 0.5 µM; in assay [2] (setting [3]) it was < 1 µM.

As to `COc1ccc2c(c1)[C@@H](N)C1(CCN(c3nc4nc(Sc5ccnc(N)c5Cl)cnc4[nH]3)CC1)C2` [Example 205, (S)-1′-(5-((2-amino-3-chloropyridin-4-yl)thio)-1H-imidazo[4,5-b]pyrazin-2-yl)-6-methoxy-1,3-dihydrospiro[indene-2,4′-piperidin]-1-amine], the concentration for half-maximal inhibition (IC50) in assay [1] is < 0.5 µM; in assay [2] (setting [3]) it was < 1 µM.

For `COc1nccc(Sc2cnc3[nH]c(N4CCC5(CC4)Cc4ccccc4[C@H]5N)nc3n2)c1Cl` [Example 239, (S)-1′-(5-((3-chloro-2-methoxypyridin-4-yl)thio)-1H-imidazo[4,5-b]pyrazin-2-yl)-1,3-dihydrospiro[indene-2,4′-piperidin]-1-amine], the IC50 in assay [1] was < 0.5 µM; in assay [2] (setting [3]), 1 to 5 µM.

Turning to `COc1cnccc1Sc1cnc2nc(N3CCC4(CC3)Cc3ccc(F)cc3[C@H]4N)[nH]c2n1` [Example 182], the concentration for half-maximal inhibition (IC50) in assay [1] is < 0.5 µM; in assay [2] (setting [3]), < 1 µM.

Regarding `Nc1nccc(Sc2cnc3[nH]c(N4CCC5(CC4)Cc4ccccc4[C@H]5N)nc3n2)c1F` [Example 222, (S)-1′-(5-((2-amino-3-fluoropyridin-4-yl)thio)-1H-imidazo[4,5-b]pyrazin-2-yl)-1,3-dihydrospiro[indene-2,4′-piperidin]-1-amine], the values for the IC50 in assay [1] and in assay [2] (setting [3]) were < 0.5 µM and > 5 µM, respectively.

Consider `N[C@@H]1c2cccnc2CC12CCN(c1nc3ncc(Sc4cccc(Cl)c4Cl)nc3[nH]1)CC2` [Example 172, (S)-1′-(5-((2,3-dichlorophenyl)thio)-1H-imidazo[4,5-b]pyrazin-2-yl)-5,7-dihydrospiro[cyclopenta[b]pyridine-6,4′-piperidin]-5-amine], for which the values for the IC50 in assay [1] and in assay [2] (setting [3]) were < 0.5 µM and < 1 µM, respectively.

`N[C@@H]1c2ccccc2OC12CCN(c1nc3nc(Sc4ccnc(NC5CC5)c4Cl)cnc3[nH]1)CC2` [Example 174, (R)-1′-(5-((3-chloro-2-(cyclopropylamino)pyridin-4-yl)thio)-1H-imidazo[4,5-b]pyrazin-2-yl)-3H-spiro[benzofuran-2,4′-piperidin]-3-amine]: the IC50 in assay [1] is < 0.5 µM; in assay [2] (setting [3]) it was < 1 µM.

As for `Nc1nccc(Sc2cnc3[nH]c(N4CCC5(CC4)Cc4ncc(F)cc4[C@H]5N)nc3n2)c1Cl` [Example 230, (S)-1′-(5-((2-amino-3-chloropyridin-4-yl)thio)-1H-imidazo[4,5-b]pyrazin-2-yl)-3-fluoro-5,7-dihydrospiro[cyclopenta[b]pyridine-6,4′-piperidin]-5-amine], the concentration for half-maximal inhibition (IC50) in assay [1] was < 0.5 µM; in assay [2] (setting [3]), 1 to 5 µM.

Take `N#Cc1ncccc1Sc1cnc2[nH]c(N3CCC4(CC3)Cc3ccccc3[C@H]4N)nc2n1` [Example 217, (S)-3-((2-(1-amino-1,3-dihydrospiro[indene-2,4′-piperidin]-1′-yl)-1H-imidazo[4,5-b]pyrazin-5-yl)thio)picolinonitrile]: the IC50 in assay [1] is < 0.5 µM; in assay [2] (setting [3]) it was < 1 µM.

Turning to `N[C@@H]1c2ccccc2CC12CCN(c1nc3ncc(Sc4cccc5nccnc45)nc3[nH]1)CC2` [Example 179, (S)-1′-(5-(quinoxalin-5-ylthio)-1H-imidazo[4,5-b]pyrazin-2-yl)-1,3-dihydrospiro[indene-2,4′-piperidin]-1-amine], the concentration for half-maximal inhibition (IC50) in assay [1] is < 0.5 µM; in assay [2] (setting [3]), < 1 µM.

For `COc1nccc(Sc2cnc3[nH]c(N4CCC5(CC4)Cc4ccc(Br)cc4[C@H]5N)nc3n2)c1Cl` [Example 228, (S)-6-bromo-1′-(5-((3-chloro-2-methoxypyridin-4-yl)thio)-1H-imidazo[4,5-b]pyrazin-2-yl)-1,3-dihydrospiro[indene-2,4′-piperidin]-1-amine], the IC50 is < 0.5 µM in assay [1] and > 5 µM in assay [2] (setting [3]).

Consider `N[C@@H]1c2ccccc2CC12CCN(c1nc3nc(Sc4cnc5ccccn5c4=O)cnc3[nH]1)CC2` [Example 221, (S)-3-((2-(1-amino-1,3-dihydrospiro[indene-2,4′-piperidin]-1′-yl)-1H-imidazo[4,5-b]pyrazin-5-yl)thio)-4H-pyrido[1,2-a]pyrimidin-4-one], for which the figures for the half-inhibitory concentration (IC50) in assay [1] and in assay [2] (setting [3]) were 0.5 to 3 µM and 1 to 5 µM, respectively.

For `N[C@@H]1CCCC12CCN(c1nc3ncc(Sc4cccc(Cl)c4Cl)nc3[nH]1)CC2` [Example 3, (R)-8-(6-((2,3-dichlorophenyl)thio)-1H-imidazo[4,5-b]pyrazin-2-yl)-8-azaspiro[4.5]decan-1-amine], the half-inhibitory concentration (IC50) in assay [1] is < 0.5 µM; in assay [2] (setting [3]), 1 to 5 µM.

In the case of `N[C@@H]1c2ccccc2OC12CCN(c1nc3nc(Sc4ccncc4Cl)cnc3[nH]1)CC2` [Example 155, (R)-1′-(5-((3-chloropyridin-4-yl)thio)-1H-imidazo[4,5-b]pyrazin-2-yl)-3H-spiro[benzofuran-2,4′-piperidin]-3-amine], the IC50 in assay [1] was < 0.5 µM; in assay [2] (setting [3]) it was 1 to 5 µM.

One may read the IC50 as the point on the concentration scale where inhibition reaches its midpoint.
